Laboratory results as given in US20050032841A1, “Therapeutic compositions and methods of treating glycolipid storage related disorders” (priority 1999, published 2005).
Values joined by “and” are separate entries in the source; they are usually repeats but may differ in a detail not shown here. Identical values can stand only once.

Legend:
[1] = Serum enzyme activity and half life of Ceredase after i.v. injection in mice, with or without NB-DNJ pre-treatment; assay type: in vivo; set-up: unit not given here; conditions: mice treated with NB-DNJ 4800 mg/kg/day for 5 weeks
Experimental: A group of mice were treated with NB-DNJ at 4800 mg/kg/day for 5 weeks. After a low intravenous dose (5-10 U/kg) of Ceredase™ (Genzyme Corporation) administered as a single injection via the tail vein, serum enzyme activity was measured by taking sequential serum samples from the tail vein to monitor enzyme activity over time. Ceredase™ is a modified form of β glucocerebrosidase.

[2] = test system: Sandhoff mice; assay: Survival of Sandhoff mice treated with NB-DNJ and/or bone marrow transplantation; assay type: in vivo; conditions: BMT at two weeks of age, NB-DNJ 600 mg/kg/day from 9.5-11 weeks of age
[3] = test system: MPS IIIA mice; assay: Murine model of MPS IIIA: brain immunocytochemistry (GM2, GM3) and auto-fluorescent material; assay type: in vivo
Text: Colonies of mutant mice expressing the MPS IIIA phenotype have been described, and have been validated by a number of criteria as an authentic model of the disease (Stanley, P et al (1999) Glycobiology 9: 1389-1396). MPS IIIA mice display clinical signs of the disease around 6 months of age with decreased activity, scruffy coat, abdominal distention, hunched posture and waddling gait. […] Death results by 18 months or less.
The brains of MPS mice are grossly normal. […] White matter and Purkinje cells display axonal spheroids. Anti-heparan sulfate immunostaining indicates accumulation of heparan sulfate fragments in the cerebral cortex of MPS IIIA animals.
MPS IIIA mice were treated with 1200 mg/kg/day, beginning at 4 weeks of age, with NB-DNJ. Brain samples from animals were taken at 8 weeks of age (4 weeks of treatment with NB-DNJ) and subjected to immunocytochemistry with an anti-GM2 ganglioside-specific monoclonal antibody. […] Upper cortex, ii. Lower cortex; B: NB-DNJ Treated, i. Upper cortex, ii. Lower cortex.
The hippocampus (CA4-Dentate Gyrus) of the MPS IIIA animals was also examined for staining by a GM2 Ganglioside-specific monoclonal antibody.
Cerebral cortex samples from animals were also taken at 40 weeks of age (36 weeks of treatment with NB-DNJ) and subjected to immunocytochemistry with an anti-GM3 ganglioside-specific monoclonal antibody. Anti-GM2 staining was similar to anti-GM3 staining in both treated and untreated animals, respectively (data not shown).
The brains of animals affected by MPS IIIA, as well as some other of the mucopolysaccharidoses, store heterogeneous auto-fluorescent material in addition to glycolipids. Thus, the cerebral cortex of MPS IIIA animals either left untreated or treated for 36 weeks with NB-DNJ were also examined for the presence of auto-fluorescent material.

[4] = test system: in vitro model of Gaucher disease; conditions: cited from earlier work
[5] = test system: mouse model of Tay-Sachs disease; conditions: asymptomatic Tay-Sachs mouse model; cited from earlier work
[6] = test system: GSL synthesis; conditions: compared with NB-DNJ; cited from earlier work
[7] = test system: α-glucosidase I and II; conditions: cited from earlier work

SMILES | Peak Activity of Ceredase in serum, mean ± sem ([1]; Ceredase 5-10 U/kg i.v., group mean) | Peak Activity of Ceredase in serum ([1]; Ceredase 5-10 U/kg single i.v. injection, individual mice) | Survival (longest survivor) [2] [days] | Pathological features in the model of MPS IIIA ([3]; NB-DNJ 1200 mg/kg/day) | Glycolipid storage in neuronal cells ([3]; NB-DNJ 1200 mg/kg/day from 4 weeks of age, anti-GM2/GM3 immunocytochemistry) | Storage of auto-fluorescent material in cerebral cortex ([3]; NB-DNJ 1200 mg/kg/day, 36 weeks of treatment) | Storage in in vitro model of Gaucher disease [4] | GM2 accumulation in the brain and associated neuropathology [5] | Inhibition of GSL synthesis in vitro [6] | Inhibition of α-glucosidase I and II [7]
CCCCN1C[C@H](O)[C@@H](O)[C@H](O)[C@H]1CO [NB-DNJ, N-butyldeoxynojirimycin] | 27.4 ± 7.2 | 13.9 and 32.1 and 24.1 and 13.1 and 21.0 and 68.3 and 19.2 | 170 | markedly reduces the pathological features | markedly reduced | reduced the storage of auto-fluorescent material | shown to prevent storage | reduce GM2 accumulation in the brain and prevent the neuropathology | – | –
CCCCN1C[C@H](O)[C@@H](O)[C@@H](O)[C@H]1CO [NB-DGJ, N-butyldeoxygalactonojirimycin] | – | – | – | – | – | – | – | – | as effectively as NB-DNJ | does not inhibit
